{
  "source": "patent US20230312587A1",
  "about": "“PTERIDINONE COMPOUNDS AND USES THEREOF” (Vertex Pharmaceutical Incorporated, priority 2018, published 2023)",
  "key": {"[1]": {"test_system": "ER stress marker proteins XBP1(s) and ATF4", "assay": "ER stress marker immunoblot in parental HepG2 vs WFS1 KO cells", "assay_type": "cell-based", "conditions": "6 hours, immunoblotting", "excerpt": "(§1) In contrast WFS1 depletion had no effect on thapsigargin induced changes in global gene expression (FIG. 7.)"}, "[2]": {"test_system": "HepG2 cells with CRISPR/Cas9 mediated WFS1 knockout (KO)", "assay": "Calcium flux in parental HepG2 vs HepG2 WFS1 knockout cells", "assay_type": "cell-based", "conditions": "30 minutes after compound addition", "excerpt": "A double cleavage strategy was employed to remove large fragments from the WFS1 locus. Suitable target sites in WFS1 exon 8 were first selected using CRISPR design software to rank suitable target sites and computationally predict off-target sites for each intended target. Six top guide RNA sequences are identified and screened for activity using the Surveyor Mutation Detection Kit (Integrated DNA Technologies). Then, the best 2 guide RNAs were cloned into GeneArt OFP CRISPR nuclease vectors (Thermofisher, Cat #A21174) separately and co-transfected into HepG2 cells using nucleofection (4D Nucleofector X, Lonza). Cells were sorted by FACS 48 hrs later to enrich for the OFP positive cell population. The OFP positive cell population were plated into 96-well plates at 0.5-5 cells/well to isolate clonal cell lines. After allowing cells to expand for 2-3 weeks, plates were inspected for presence of colonies. When colonies became more than 70% confluent, they were dissociated with trypsin and were further expanded. Cell clones with homozygous double cleavage of WFS1 exon 8 were detected with PCR and confirmed with DNA sequencing."}, "[3]": {"test_system": "tumor xenografts derived from multiple cancer types", "assay": "In vivo efficacy of Compound 136 in various tumor xenografts", "set-up": "species or system SCID or nude mice; key to tumor response (regression class): CR: complete regression (majority response on treatment is that tumors become undetectable); PR: partial regression (majority response on treatment is that tumors shrink by at least 330%)", "experimental": "Female immune deficient mice (Charles River, 4-6 wks age) were anesthetized with Ketamine-Xylazine (140 mg/kg-14 mg/kg ip) and shaved. Puralube eye ointment was applied to the eyes to prevent desiccation of the corneas. Betadine and 70% ethanol was applied to the shaved location to sterilize the skin at the location of the incision. The animals were placed in a biosafety cabinet for the duration of the surgery. Using scissors, an 8 to 10 mm incision was made in the lateral flank of the skin. A tumor fragment weighing between 50 and 150 mg was placed under the skin at the incision site using forceps, and staples were used to close the incision. The staples were removed 5 to 7 days after surgery. Starting approximately two weeks after implantation, animals were weighed, and tumors were measured using caliper twice weekly. Tumor volume was calculated using the formula: volume=length×width^2×0.52.\nCompound administration began when xenografts reached approximately 100-300 mm3 and continued until control xenografts reached […] of the animal's body weight. Test compounds were administered orally by gastric gavage. Percent tumor growth inhibition (TG) was calculated on the indicated treatment day. Percent TGI is defined as: [1−(del T/del C)]×100%, where del T is the final minus initial average volumes of the treated group, and del C is the final minus initial average volumes of the control group. […] The tested compounds were administered orally. Vehicle control consisted of either 0.5% methylcellulose/0.1% sodium lauryl sulfate or 20% captisol. Tumor volumes were determined by caliper measurement twice a week.\nTumors were engrafted in either SCID or nude mice. Compound 136 was administered orally once a day (QD) at 100 mg/kg. Vehicle control consisted of 0.5 methylcellulose/0.10% sodium lauryl sulfate. Tumor volumes were determined by caliper measurement twice a week. TG tumor growth inhibition at end of treatment. CR: complete regression (majority response on treatment is that tumors become undetectable), PR: partial regression (majority response on treatment is that tumors shrink by at least […])."}, "[4]": {"test_system": "global gene expression in HepG2 cells", "assay": "Global gene expression changes in HepG2 vs WFS1 depleted cells", "assay_type": "cell-based", "conditions": "HepG2, 6 hours of exposure", "excerpt": "as §1"}, "lung PDX models": {"test_system": "lung PDX models", "assay": "Response of lung PDX models with highest and lowest WFS1 gene expression", "assay_type": "in vivo", "conditions": "10 highest and 10 lowest WFS1 expressing lung PDX models", "excerpt": "Finally, an in vivo study was run to evaluate the relationship between WFS1 expression in patient derived xenografts (PDX). To do this, the 10 lung PDX models with the highest WFS1 gene expression and the 10 lung PDX models with the lowest WFS1 gene expression were selected from the Oncotest compendium."}, "[5]": {"conditions": "Bladder BXF 1036, 100 mg/kg QD oral, 21 days"}, "[6]": {"conditions": "Kidney RXF 631, 100 mg/kg QD oral, 21 days"}, "[7]": {"conditions": "Melanoma MEXF 1765, 100 mg/kg QD oral, 21 days"}, "[8]": {"conditions": "Multiple myeloma NCI-H929, 100 mg/kg QD oral, 21 days"}, "[9]": {"conditions": "Multiple myeloma OPM2, 100 mg/kg QD oral, 21 days"}, "[10]": {"conditions": "Non-small cell lung LXFL 529, 100 mg/kg QD oral, 21 days"}, "[11]": {"conditions": "Non-small cell lung LXFL 625, 100 mg/kg QD oral, 21 days"}, "[12]": {"conditions": "Non-small cell lung LXFL 2207, 100 mg/kg QD oral, 21 days"}, "[13]": {"conditions": "Non-small cell lung OD26749, 100 mg/kg QD oral, 21 days"}, "[14]": {"conditions": "Non-small cell lung OD33966, 100 mg/kg QD oral, 21 days"}},
  "data": [
    {"smiles": "COc1c(F)cc(Cn2cc(CNc3nc(C)c4c(n3)N(C)[C@@H](C)C(=O)N4)cn2)cc1F", "note": "[Compound 46, (7S)-2-(((1-(3,5-difluoro-4-methoxybenzyl)-1H-pyrazol-4-yl)methyl)amino)-4,7,8-trimethyl-7,8-dihydropteridin-6(5H)-one]", "values": [
      {"measurement": "melting point", "result": "136 to 138", "unit": "°C"}
    ]},
    {"smiles": "Cc1nc(NCc2cnn(Cc3ccc(C(F)(F)F)nc3)c2)nc2c1NC(=O)[C@H](C)N2C", "note": "[Compound 136, (7S)-4,7,8-trimethyl-2-(((1-((6-(trifluoromethyl)pyridin-3-yl)methyl)-111-pyrazol-4-yl)methyl)amino)-7,8-dihydropteridin-6(5H)-one]", "values": [
      {"measurement": "effect of WFS1 depletion on induction of XBP1(s) and ATF4", "setting": "[1]", "result": "prevents the induction"},
      {"measurement": "effect of WFS1 depletion on ability to induce calcium flux", "setting": "[2]", "result": "completely eliminated"},
      {"measurement": "% TGI", "setting": "[3]; [5]", "result": "> 100", "unit": "%"},
      {"measurement": "Body weight change at end of treatment", "setting": "[3]; [5]", "result": "+5.5%"},
      {"measurement": "tumor response (regression class)", "setting": "[3]; [5]", "result": "PR"},
      {"measurement": "% TGI", "setting": "[3]; Breast DU4475, 100 mg/kg QD oral, 14 days", "result": 99, "unit": "%"},
      {"measurement": "% TGI", "setting": "[3]; [6]", "result": 89, "unit": "%"},
      {"measurement": "Body weight change at end of treatment", "setting": "[3]; [6]", "result": "+6.2%"},
      {"measurement": "% TGI", "setting": "[3]; [7]", "result": "> 100", "unit": "%"},
      {"measurement": "Body weight change at end of treatment", "setting": "[3]; [7]", "result": "+9.8%"},
      {"measurement": "tumor response (regression class)", "setting": "[3]; [7]", "result": "CR"},
      {"measurement": "% TGI", "setting": "[3]; [8]", "result": "> 100", "unit": "%"},
      {"measurement": "Body weight change at end of treatment", "setting": "[3]; [8]", "result": "+1.8%"},
      {"measurement": "tumor response (regression class)", "setting": "[3]; [8]", "result": "CR"},
      {"measurement": "% TGI", "setting": "[3]; [9]", "result": "> 100", "unit": "%"},
      {"measurement": "Body weight change at end of treatment", "setting": "[3]; [9]", "result": "−0.9", "unit": "%"},
      {"measurement": "tumor response (regression class)", "setting": "[3]; [9]", "result": "CR"},
      {"measurement": "% TGI", "setting": "[3]; [10]", "result": "> 100", "unit": "%"},
      {"measurement": "Body weight change at end of treatment", "setting": "[3]; [10]", "result": "+5.5%"},
      {"measurement": "tumor response (regression class)", "setting": "[3]; [10]", "result": "CR"},
      {"measurement": "% TGI", "setting": "[3]; [11]", "result": "> 100", "unit": "%"},
      {"measurement": "Body weight change at end of treatment", "setting": "[3]; [11]", "result": "+3.7%"},
      {"measurement": "tumor response (regression class)", "setting": "[3]; [11]", "result": "CR"},
      {"measurement": "% TGI", "setting": "[3]; [12]", "result": "> 100", "unit": "%"},
      {"measurement": "Body weight change at end of treatment", "setting": "[3]; [12]", "result": "+1.5%"},
      {"measurement": "tumor response (regression class)", "setting": "[3]; [12]", "result": "PR"},
      {"measurement": "% TGI", "setting": "[3]; [13]", "result": "> 100", "unit": "%"},
      {"measurement": "Body weight change at end of treatment", "setting": "[3]; [13]", "result": "−0.1", "unit": "%"},
      {"measurement": "tumor response (regression class)", "setting": "[3]; [13]", "result": "CR"},
      {"measurement": "% TGI", "setting": "[3]; [14]", "result": "> 100", "unit": "%"},
      {"measurement": "Body weight change at end of treatment", "setting": "[3]; [14]", "result": "+4.5%"},
      {"measurement": "tumor response (regression class)", "setting": "[3]; [14]", "result": "PR"},
      {"measurement": "growth of tumor xenografts", "setting": "[3]; orally once a day (QD) at 100 mg/kg, SCID or nude mice", "result": "inhibits growth of tumor xenografts derived from multiple cancer types"},
      {"measurement": "effect of WFS1 depletion on changes in global gene expression", "setting": "[4]", "result": "prevented Compound 136 from causing changes"},
      {"measurement": "association between WFS1 gene expression and response in PDX models", "setting": "lung PDX models", "result": "strong association"}
    ]}
  ]
}
